Experimental data: patent US9526720B2, “Modulators of hepatic lipoprotein metabolism” (The Broad Institute, Inc., priority 2012, dated 2016)

Tests used:
[1] = test system: HepG2 cells; test: Cell Titer Glo (CTG) cell viability assay; format: cell-based, human; design: key: A: Increase <2-fold; B: Increase >2-fold; X: Decrease <2-fold; Y: Decrease >2-fold; No significant change; details: cell viability (ATP)
Procedure: Cell viability was determined using a Cell Titer Glo (CTG) assay ([…]) after treatment with TRIB1 inducer compounds. In this assay, the number of viable cells in culture is based on quantitation of ATP, which indicates metabolically active cells. Addition of the reagent results in cell lysis and generation of a luminescent signal proportional to the amount of ATP present, which is directly proportional to the number of viable, metabolically active cells present in culture. Most TRIB1 inducer compounds had no significant effect on cell viability.

[2] = test system: ApoB; test: ELISA of secreted ApoB in HepG2 cells; format: cell-based, human; details: HepG2 cells
Procedure: (§1) Additional secondary assays were performed in HepG2 cells to further characterize the cellular response to treatment with select confirmed TRIB1 inducer hits. The results of the ELISA, CTG, and qPCR secondary assays are summarized in Table B. For all secondary assays, the experiments were performed using powders of freshly purified compounds.
(§2) To further characterize the relationship of TRIB1 induction and PCSK9 reduction, ELISAs were performed to measure the levels of secreted ApoB, PCSK9, and LDLR. […] As predicted treatment with TRIB1 inducer hits caused a decrease in ApoB levels detected by ELISA. In parallel effort, 3200 BIOA and NATP compounds were screened for PCSK9 expression inhibitors. Hits were defined as inducing greater than 3-fold downregulation of PCSK9, and 3.8% of the screened compounds were confirmed as hits. […] In further experiments, a strong correlation was confirmed between TRIB1 induction and PCSK9 repression in DOS Collection hits. ELISA analysis confirmed that treatment with TRIB1 inducers reduced the PCSK9 protein levels. LDLR protein levels were also analyzed by ELISA to determine whether compounds that modulate both TRIB1 and PCSK9 had any effect on LDLR protein levels.

[3] = test system: HMGCR; test: qPCR HMGCR transcript level in HepG2 cells; format: cell-based, human; design: key: A: Increase <2-fold; B: Increase >2-fold; X: Decrease <2-fold; Y: Decrease >2-fold; No significant change
Procedure: (§3) In the primary screen, HepG2 cells were plated in 384-well plates at 2000 cells per well and incubated for 20 hours with each compound in duplicate at 10 microM concentration. Then RNA was isolated, reverse-transcribed to cDNA, and stored at −80° C. Expression levels of TRIB1 and other target genes, such as SORT1 and PCSK9, were determined by quantitative PCR. Relative gene expression level was normalized to expression of the housekeeping gene, GAPDH. A “hit” was defined as those compounds that caused a greater than 2-fold increase in relative target gene expression when normalized to GAPDH expression, compared to DMSO-treated control. Using these criteria, 130 hits were identified for TRIB1 (0.8% hit rate).
(§4) Further analysis of the expression levels of various proteins in the cholesterol and triglyceride biosynthetic pathways in response to TRIB1 inducer treatment was performed. In particular, transcript levels of additional lipoprotein metabolism pathway proteins SCAP, SREBF1, SREBF2, HMGCR, HMGCS, SCD1, FASN and MTTP were assessed by qPCR, along with TRIB1, LDLR, and PCSK9. The gene expression profile for the same subset of genes was also assessed after treatment with the statin atorvastatin (Lipitor), commonly used in therapy for hypercholesterolemia and other cardiovascular diseases.

[4] = test system: LDLR; test: qPCR LDLR expression in HepG2 cells; format: cell-based, human; details: HepG2 cells
Procedure: as §3, §4
(§5) The kinetics of the modulation of TRIB1, LDLR, PCSK9 and MTTP gene expression after treatment by select TRIB1 inducer compounds was monitored by qPCR analysis (FIG. 4). RNA was extracted from cells at various timepoints over 28 hours of treatment (0, 2, 4, 6, 8, 24, 28 hours). Specifically, compounds 12a and 14a induced transcriptional responses over time similar to those produced by berberine, a plant alkaloid used in Chinese medicine. […] Both compound 12a and compound 14a induce TRIB1 and LDLR and repress PCSK9 and MTTP expression with similar kinetics and similar fold change as berberine Importantly, both compounds induce these gene expression changes at much lower concentrations than berberine. […] This increased potency indicates the potential therapeutic efficacy of such compounds for treatment of cardiovascular diseases, particularly hypercholesterolemia and related conditions.

[5] = test system: SCD1; test: qPCR SCD1 transcript level in HepG2 cells; format: cell-based; details: Homo sapiens, 20 h
Procedure: as §3, §4

[6] = test system: SREBF1; test: qPCR SREBF1 transcript level in HepG2 cells; format: cell-based, human; design: key: A: Increase <2-fold; B: Increase >2-fold; X: Decrease <2-fold; Y: Decrease >2-fold; No significant change
Procedure: as §3, §4

[7] = test system: SREBF2; test: qPCR SREBF2 transcript level in HepG2 cells; format: cell-based, human; design: key: A: Increase <2-fold; B: Increase >2-fold; X: Decrease <2-fold; Y: Decrease >2-fold; No significant change
Procedure: as §3, §4

[8] = test system: HMGCS; test: qPCR HMGCS transcript level in HepG2 cells; format: cell-based; details: Homo sapiens, 20 h
Procedure: as §3, §4

[9] = test system: FASN; test: qPCR FASN transcript level in HepG2 cells; format: cell-based; details: Homo sapiens, 20 h
Procedure: as §3, §4

[10] = test system: PCSK9; test: qPCR PCSK9 expression in HepG2 cells; format: cell-based, human; details: Homo sapiens, 20 h; HepG2 cells
Procedure: as §3, §4, §5

[11] = test system: SCAP; test: qPCR SCAP transcript level in HepG2 cells; format: cell-based, human; design: key: A: Increase <2-fold; B: Increase >2-fold; X: Decrease <2-fold; Y: Decrease >2-fold; No significant change
Procedure: as §3, §4

[12] = test system: TRIB1; test: qPCR TRIB1 expression in HepG2 cells; format: cell-based, human; details: Homo sapiens, 20 h; HepG2 cells
Procedure: as §3, §4, §5

[13] = test system: LDLR; test: ELISA of LDLR protein in HepG2 cells; format: cell-based, human; design: key to ELISA LDLR: A: Increase <2-fold; B: Increase >2-fold; X: Decrease <2-fold; Y: Decrease >2-fold; No significant change; details: HepG2 cells
Procedure: as §1, §2

[14] = test system: PCSK9; test: ELISA of secreted PCSK9 protein in HepG2 cells; format: cell-based, human; details: HepG2 cells
Procedure: as §1, §2

| SMILES | CTG [1] | ELISA ApoB [2] | qPCR HMGCR [3] | qPCR LDLR [4] | fold induction at 10 µM [5] | qPCR SREBF1 [6] | qPCR SREBF2 [7] | fold induction at 10 µM [8] | fold induction at 10 µM [9] | fold induction at 10 µM [10] | qPCR SCAP [11] | fold induction at 10 µM [12] | ELISA LDLR [13] | ELISA PCSK9 [14] |
| --- | --- | --- | --- | --- | --- | --- | --- | --- | --- | --- | --- | --- | --- | --- |
| CN1C(=O)c2cc(NC(=O)Cc3cccs3)ccc2OC[C@@H]2O[C@H](CC(=O)NCc3ccc(-c4ccccc4)cc3)CC[C@@H]21 [Compound 4a] | N | Y (Decrease >2-fold) | X (Decrease <2-fold) | A (Increase <2-fold) | < 2 | X (Decrease <2-fold) | X (Decrease <2-fold) | > 2 | > 2 | > 2 | X (Decrease <2-fold) | > 2 | A (Increase <2-fold) | X (Decrease <2-fold) |
| O=C(C[C@@H]1CC[C@H]2[C@@H](COC[C@H](O)CN2Cc2ccc(Oc3ccccc3)cc2)O1)N1CCc2ccccc2C1 [Compound 6a] | N | Y (Decrease >2-fold) | N | A (Increase <2-fold) | > 2 | N | N | > 2 | > 2 | > 2 | N | > 2 | A (Increase <2-fold) | Y (Decrease >2-fold) |
| O=C(C[C@H]1CC[C@H]2[C@@H](COC[C@@H](O)CN2Cc2ccc(Oc3ccccc3)cc2)O1)N1CCc2ccccc2C1 [Compound 7a] | N | Y (Decrease >2-fold) | Y (Decrease >2-fold) | B (Increase >2-fold) | < 2 | N | N | > 2 | < 2 | > 2 | N | > 2 | B (Increase >2-fold) | Y (Decrease >2-fold) |
| O=C(C[C@@H]1CC[C@@H]2[C@H](COC[C@@H](O)CN2CCC(F)(F)F)O1)NCc1ccc(Oc2ccccc2)cc1 [Compound 8a] | N | Y (Decrease >2-fold) | Y (Decrease >2-fold) | B (Increase >2-fold) | < 2 | N | N | > 2 | < 2 | > 2 | N | > 2 | B (Increase >2-fold) | X (Decrease <2-fold) |
| O=C(C[C@H]1CC[C@@H]2[C@H](COC[C@H](O)CN2Cc2ccc(Oc3ccccc3)cc2)O1)N1CCc2ccccc2C1 [Compound 9a] | X (Decrease <2-fold) | Y (Decrease >2-fold) | Y (Decrease >2-fold) | B (Increase >2-fold) | > 2 | N | B (Increase >2-fold) | > 2 | > 2 | > 2 | N | > 2 | B (Increase >2-fold) | Y (Decrease >2-fold) |
| O=C(C[C@@H]1CC[C@@H]2[C@H](COC[C@H](O)CN2CCC(F)(F)F)O1)NCc1ccc(Oc2ccccc2)cc1 [Compound 10a] | N | Y (Decrease >2-fold) | Y (Decrease >2-fold) | B (Increase >2-fold) | > 2 | N | N | > 2 | < 2 | > 2 | N | > 2 | N | X (Decrease <2-fold) |
| O=C(C[C@H]1C[C@H]2c3cc(NC(=O)c4ccc5c(c4)OCO5)ccc3O[C@H]2[C@H](CO)O1)NCc1ccc(Oc2ccccc2)cc1 [Compound 11a] | Y (Decrease >2-fold) | Y (Decrease >2-fold) | Y (Decrease >2-fold) | B (Increase >2-fold) | > 2 | Y (Decrease >2-fold) | Y (Decrease >2-fold) | > 2 | > 2 | > 2 | N | > 2 | B (Increase >2-fold) | Y (Decrease >2-fold) |
